{
  "source": "patent US6251898A",
  "about": "“Medical use of fluorenone derivatives for treating and preventing brain and spinal injury” (Questcor Pharmaceuticals, Inc., priority 1999, dated 2001)",
  "key": {"[1]": {"system": "neuronal damage caused by global brain ischemia", "assay": "Global cerebral ischemia, bilateral carotid occlusion model in gerbils", "type": "in vivo, Mongolian gerbils", "excerpt": "The surgical and drug treatment procedures used in the animal model of global brain ischemia are described in Example 24. \"Global\" ischemia occurs when the entire brain is deprived of oxygenated blood, as occurs during crises such as cardiac arrest, suffocation, or carbon monoxide poisoning. It should be noted that the drug treatment was provided only after the ischemic insult had been fully completed (i.e., after the clamps which were used to temporarily close the carotid arteries had been released again). \"Post-trauma\" treatment offers a much more realistic, and much more difficult and stringent, challenge than other assays in which test animals are pre-treated with a test drug before an ischemic insult begins.\nIn one set of in vivo tests, the bilateral carotid occlusion model in gerbils was used to evaluate the abilities of a selected compound, GERI-E7, to protect against neuronal damage caused by global brain ischemia. These tests were performed in the laboratory of Dr. Claude Wasterlain, at the Sepulveda Veterans Administration Medical Center, in Los Angeles, Calif.\nAdult male Mongolian gerbils were subjected to reversible bilateral carotid occlusion for 5 minutes, according to standard methods (e.g., Wasterlain et al 1992 and 1996). Each gerbil in a test group was then treated with a test compound at either 2 or 20 mg/kg, dissolved in injectable saline and administered intravenously (IV). Control animals were treated with saline. All treatment and control groups had 10 animals per group. Body temperature was maintained throughout the procedure by a heat lamp and rectal probe.\nThe gerbils were sacrificed 72 hours after surgery, and their brains were perfusion-fixed with paraformaldehyde. Serial sections of the brain were cut and stained with hematoxylin and eosin, and quantitative cell counts of live and dead neurons were made, using light and fluorescence microscopy, in two different parts of the brain that are highly sensitive to ischemic damage: (i) the subiculum, a zone of transition between the parahippocampus and the hippocampus; and (ii) the CA1 portion of the hippocampus. Statistical analysis was performed on all damage scores (non-paired student t test). All evaluations were made using double-blinded methods."}, "[2]": {"system": "neuronal damage caused by focal brain ischemia", "assay": "Focal cerebral ischemia, middle cerebral artery occlusion model in rats", "type": "in vivo, Sprague-Dawley rats", "experimental": "Other in vivo tests were also carried out using \"focal\" brain ischemia (i.e., blood supply to only a portion of the brain is disrupted, as usually occurs during a stroke). These assays used a surgical procedure described in Example 25, in which the right middle cerebral artery (MCA) and the right common carotid artery (CCA) of rats were clamped shut for two hours. The clamps were then removed, and the GERI-E7 was administered subsequently. The rats were sacrificed 3 days later, and brain sections were analyzed using tetrazolium dye, to determine the volumes of brain tissue with large numbers of dead or dying neurons.\nIn a second set of in vivo tests, a middle cerebral artery occlusion model was used in rats, to evaluate the ability of test compound GERI-E7 to reduce neuronal damage caused by focal brain ischemia. These tests were also performed in the laboratory of Dr. Claude Wasterlain, at the Sepulveda VA Medical Center in Los Angeles.\nMale Sprague-Dawley rats (220 to 285 g) were intubated with an 18 gauge gavage needle and artificially respirated with a Harvard small animal respirator, 50 to 60 strokes/min, 2.0 to 3.0 cc. Anesthetization was induced by administering 1 to 2% methoxyflurane in a 1:2 O2 :N2 O gas mixture. To allow for rapid induction of the anesthetic state, succinylcholine (4 mg/kg, i.p.) was given immediately after anesthesia commenced, and surgery began 15 to 20 minutes later. Body temperature was maintained throughout by a heat lamp and rectal probe.\nFocal cerebral ischemia was induced by reversibly clipping the right middle cerebral artery (MCA) and the right common carotid artery (CCA), as described in articles such as Kaplan et al 1991. A tracheal incision approximately 2.5 cm long was made, allowing placement of 4-0 suture silk under the CCA. This allowed rapid manipulation of the artery for clip placement. The temporalis muscle was partially excised and a 2 mm burr hole was drilled 2-3 mm rostral to the point of fusion of the zygoma with the temporal bone. Saline was used throughout this procedure for washing and maintenance of moisture.\nThe MCA was occluded below the rhinal fissure with a Codman Microaneurysm Clip #1. After the MCA was occluded the animal was turned onto its back and the CCA was occluded with a Roboz Microaneurysm Clip RS-5424.\nA moistened piece of cotton was placed on the head wound and the tracheal region was partially closed by suture prior to placement of the animal in a warm cage with an oxygen tent. After a two-hour occlusion period (shown to produce a consistently measurable but non-lethal infarct), the clips were removed and methoxyflurane was administered via a nose cone. Visual verification was made for both artery occlusion, and post-occlusion reperfusion.\nAfter the clips were removed and reperfusion was established, each animal was treated with either the GERI-E7 compound, at 20 mg/kg IV, or with the saline vehicle. All test and control groups had 10 animals. The wounds were closed and the animals were returned to their home cages.\nAnimals were sacrificed 72 hours later, and the brains were perfusion-fixedwith 4% paraformaldehyde. […] Infarct area was measured with an image analysis system at 8 to 10 levels between the posterior hippocampus and piriform olfactory cortex, to the level of the rhinal fissure. Infarct volume was determined by multiplying the average infarct area by the length of the brain between the posterior hippocampus and the piriform olfactory cortex. […]"}},
  "data": [
    {"smiles": "CCC[C@]12CCC(=O)C=C1c1c(cc(OCC3=NCCO3)c(Cl)c1Cl)C2", "note": "[GERI-E7, R(+)-2-[[(5,6-dichloro-2,3,9,9a-tetrahydro-3-oxo-9a-propyl-1H-fluoren-7-yl)-oxy]methyl]oxazoline]", "values": [
      {"measurement": "Reduction of dead or dying neurons in the hippocampus", "setting": "[1]; CA1 region of hippocampus, IV after 5 min occlusion, 72 h, 2 or 20 mg/kg, on average", "result": "about 40%"},
      {"measurement": "Reduction of brain damage caused by global brain ischemia", "setting": "[1]; animal model used", "result": "very effective in reducing brain damage"},
      {"measurement": "Reduction in neuronal damage levels in other brain regions", "setting": "[1]; mainly visual semi-quantitative methods", "result": "significant reduction in neuronal damage levels in most of the other areas"},
      {"measurement": "Reduction in neuronal damage in both brain regions evaluated", "setting": "[1]; subiculum and CA1, versus saline control, student t test", "result": "substantial and statistically significant reduction in neuronal damage"},
      {"measurement": "Reduction of dead or dying neurons in the subiculum", "setting": "[1]; subiculum, IV after 5 min occlusion, 72 h, 2 or 20 mg/kg, on average", "result": "about 30%"},
      {"measurement": "Edema", "setting": "[2]; 20 mg/kg IV after 2 h occlusion, 72 h", "result": "Edema was also reduced"},
      {"measurement": "Reduction of area of infarct volume", "setting": "[2]; 20 mg/kg IV after 2 h occlusion, 72 h, FIG. 13", "result": "about 50%"},
      {"measurement": "Reduction of brain damage caused by focal brain ischemia", "setting": "[2]; animal model used", "result": "very effective in reducing brain damage"},
      {"measurement": "Reduction of infarct volumes", "setting": "[2]; first round of focal assays", "result": "about 30%"},
      {"measurement": "Reduction of infarct volumes", "setting": "[2]; second set of assays, new batch stored in liquid nitrogen, mixed with carrier less than 24 hours before injection, average", "result": 50, "unit": "%"}
    ]}
  ]
}
